# Molecular target: T1, human LXRβ (Homo sapiens, UniProt P55055)
# T1 construct: expressed in transfected cells; host or cells: HEK293 cells (ATCC CRL-1573), transient transfection with pFA-hLXRβ/GAL4 and pUAS
# T1 sequence (P55055 222-460 limits assumed): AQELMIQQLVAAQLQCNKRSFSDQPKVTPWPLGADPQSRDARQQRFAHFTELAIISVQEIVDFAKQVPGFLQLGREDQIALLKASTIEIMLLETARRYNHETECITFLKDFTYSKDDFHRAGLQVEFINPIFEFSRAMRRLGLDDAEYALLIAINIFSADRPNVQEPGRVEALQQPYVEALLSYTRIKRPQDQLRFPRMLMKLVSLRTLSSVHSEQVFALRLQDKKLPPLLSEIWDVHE
# Test: Assay for Transcriptional Activity of LXRβ (GAL4-hLXRβ LBD luciferase reporter, transient transfection)
# Type: cell-based
# Settings: HEK293 cells transfected with pFA-hLXRβ/GAL4 and pUAS, 24 hours; for Emax: fold value in comparison with the control (DMSO-treated group); for EC50: increase of transcriptional activity of LXRβ, average of three independent tests
# Procedure, shortened: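 EC50 values, averaged over three independent runs, come from a four-parameter fit of 9-point half-log curves spanning 0.01–50 μM. Luciferase output was read in lysed HEK293 cells 24 h after dosing at 37 °C, following transient transfection with a GAL4-human LXRβ LBD fusion plus GAL4-responsive reporter.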
Compound,Emax,EC50
"CS(=O)(=O)c1cccc(-c2ccc(C3CC(C(O)(C(F)(F)F)C(F)(F)F)=NN3c3ccc(F)cc3F)cc2)c1 (centres unmarked) [Example 413, 1-(2,4-difluoro-phenyl)-5-[3′-methanesulfonyl-biphenyl-4-yl]-3-[di-(trifluoromethyl)-hydroxy-methyl]-4,5-dihydro-1H-pyrazole]",49 fold,156 nM
"CS(=O)(=O)c1ccc(-c2cccc(C3CC(C(F)(F)C(F)(F)F)=NN3c3ccc(F)cc3F)c2)cc1C(F)(F)F (centres unmarked) [Example 69, 1-(2,4-difluoro-phenyl)-5-(4′-methanesulfonyl-3′-trifluoromethyl-biphenyl-3-yl)-3-pentafluoroethyl-4,5-dihydro-1H-pyrazole]",83 fold,1100 nM
"CNCCCS(=O)(=O)c1cccc(-c2ccc(C3CC(C(O)(C(F)(F)F)C(F)(F)F)=NN3c3ccccc3Cl)cc2)c1 (centres unmarked) [Example 334, 1-(2-chloro-phenyl)-5-{3′-[3-(methyl-amino)-propane-1-sulfonyl]-biphenyl-4-yl}-3-[di-(trifluoromethyl)-hydroxy-methyl]-4,5-dihydro-1H-pyrazole]",102 fold,295 nM
"CN(C)c1ccc(-c2ccc(C3CC(C(O)(C(F)(F)F)C(F)(F)F)=NN3c3ccccc3Cl)cc2)cc1 (centres unmarked) [Example 254, 1-(2-chloro-phenyl)-5-(4′-dimethylamino-biphenyl-4-yl)-3-[di-(trifluoromethyl)-hydroxy-methyl]-4,5-dihydro-1H-pyrazole]",50 fold,7060 nM
"CC(C)(C)OC(=O)N1CC=C(c2ccc(C3CC(C(O)(C(F)(F)F)C(F)(F)F)=NN3c3ccccc3Cl)c(F)c2)CC1 (centres unmarked) [Example 342, 1-(2-chloro-phenyl)-5-[2-fluoro-4-(1-BOC-1,2,3,6-tetrahydropyridin-4-yl)-phenyl]-3-[di-(trifluoromethyl)-hydroxy-methyl]-4,5-dihydro-1H-pyrazole]",21 fold,4070 nM
"COc1ccc(-c2ccc(C3CC(C(O)(C(F)(F)F)C(F)(F)F)=NN3c3ccccc3Cl)cc2)cc1 (centres unmarked) [Example 242, 1-(2-chloro-phenyl)-5-(4′-methoxy-biphenyl-4-yl)-3-[di-(trifluoromethyl)-hydroxy-methyl]-4,5-dihydro-1H-pyrazole]",89 fold,14100 nM

# More lines, now with the values ahead:
Emax,EC50,Compound
45 fold,12800 nM,"COc1ccc(-c2cc(C3CC(C(F)(F)C(F)(F)F)=NN3c3ccc(F)cc3F)ccc2F)cn1 (centres unmarked) [Example 131, 1-(2,4-difluoro-phenyl)-5-[4-fluoro-3-(6-methoxy-pyridin-3-yl)-phenyl]-3-pentafluoroethyl-4,5-dihydro-1H-pyrazole]"
81 fold,2840 nM,"O=S(=O)(C1CC1)N1CCN(c2ccnc(C3CC(C(F)(F)C(F)(F)F)=NN3c3ccc(F)cc3F)c2)CC1 (centres unmarked) [Example 184, 1-(2,4-difluoro-phenyl)-5-[4-(4-cyclopropanesulfonyl-piperazin-1-yl)-pyridin-2-yl]-3-pentafluoroethyl-4,5-dihydro-1H-pyrazole]"
73 fold,1020 nM,"CSc1cccc(-c2ccnc(C3CC(C(F)(F)C(F)(F)F)=NN3c3ccc(F)cc3F)c2)c1 (centres unmarked) [Example 172, 1-(2,4-difluoro-phenyl)-5-[4-(3-methylsulfanyl-phenyl)-pyridin-2-yl]-3-pentafluoroethyl-4,5-dihydro-1H-pyrazole]"
92 fold,630 nM,"O=S(=O)(C1CC1)N1CC=C(c2ccc(C3CC(C(O)(C(F)(F)F)C(F)(F)F)=NN3c3ccccc3Cl)cn2)CC1 (centres unmarked) [Example 359, 1-(2-chloro-phenyl)-5-[6-(1-cyclopropanesulfonyl-1,2,3,6-tetrahydropyridin-4-yl)-pyridin-3-yl]-3-[di-(trifluoromethyl)-hydroxy-methyl]-4,5-dihydro-1H-pyrazole]"
